Key:
[1] = Solubility of benzoyl peroxide, judged by eye (crystals disappear or stay at the bottom); assay type: physicochemical
Procedure: In embodiments described herein, the solubility of benzoyl peroxide is increased. The composition of benzoyl peroxide and Hest G-18-0 is transparent. Solubility is measured by visualizing whether the solid crystalline form of benzoyl peroxide disappears in the liquid or if it can be seen at the bottom of the solution in an undissolved crystalline form.

[2] = cited from earlier work
[3] = test system: skin of the forearm; conditions: in vivo

erythema of the skin [3]	Compound	solubility of benzoyl peroxide in Hest G-18-0 ([1]; 5% benzoyl peroxide in 100% Hest G-18-0, visual, FIG. 1 right beaker)	solubility of benzoyl peroxide in ethoxydiglycol ([1]; 5% benzoyl peroxide in 100% ethoxydiglycol, visual, FIG. 1 left beaker)	solubility of benzoyl peroxide in water ([2]; at 25° C.)	solubility in common cosmetic solvents ([2]; ethanol, glycerin, propylene glycol, or butylene glycol)
	O=C(OOC(=O)c1ccccc1)c1ccccc1 [benzoyl peroxide, Benzoyl peroxide]	completely dissolved	insolubility	9.1 ppm	practically insoluble
greatly reduced	Glycereth-18 ethylhexanoate [Hest G-18-0]				

From patent US10722488B2, “Hest G-18-0 and benzoyl peroxide compositions and methods for using the same” (RODAN & FIELDS, LLC, priority 2016, dated 2020)
